pIC50: −log10 of the molar value.

The test system of this assay is PDE IV. The assay is described as follows: inhibition of PDE IV isolated from canine trachea (cAMP metabolism). To be noted: PDE IV from canine tracheal muscle; 1 μM 3H-cAMP; 10 μM CI-930; 30° C., pH 7.8; reduction expressed as percentage of that by 10 μM rolipram. It counts as biochemical. The protocol:
The following assay is employed to assess the ability of the compounds of the invention to inhibit PDE IV.
A solution containing PDE IV is prepared from canine tracheal muscle as follows:
The dog is euthanized with an overdose of beuthanasia while under anesthesia induced by a 33 mg/kg IV bolus of Nembutal. The trachealis muscle is removed, cleaned of connective tissue, and minced thoroughly. Three to four grams of tissue is then homogenized in Tris-HCl buffer (pH 7.8) using a Polytron. The homogenate is then centrifuged at 25,000×g (4° C.) for 30 minutes. The supernatant is decanted and filtered through four layers of gauze, and applied to a 40 cm×2 cm DEAE-Sepharose column that is equilibrated with Tris-HCl buffer (pH 7.8). The column is then washed with an additional 240 mL of buffer to remove unbound proteins. PDE is eluted using 450 mL of Tris-HCl buffer containing a linear gradient of 0.0-1.0M Na-acetate (80 mL/hr), and 7.5 mL fractions are collected. Each fraction is assayed for cAMP- and cGMP-metabolizing PDE activity. Fractions eluting at approximately 0.6M Na-acetate, and containing cAMP but not cGMP metabolic activity are pooled and used as a PDE stock solution for assaying PDE IV inhibitory activity.
CI-930 is included as an inhibitor of the cyclic GMP-sensitive, cyclic AMP-selectivePDE (PDE III) that is also present in the PDE IV stock solution when prepared as described above.
One may read the pIC50 as the IC50 on a negative log10 scale, so that one unit is a factor of ten. Higher therefore signals a small IC50. `COc1ccc(/C(C)=N/OC(N)=O)cc1OC1CC2CCC1C2` (stereo not shown) [Example 13, 1-[3-(bicyclo[2.2.1]hept-2-yloxy)-4-methoxyphenyl]ethanone (E)-O-(aminocarbonyl)oxime] showed a pIC50 of 7.17.

Turning to `COc1ccc(/C(Cc2ccccc2)=N/OC(N)=O)cc1OC1CCCC1` [Example 4, 1-(3-Cyclopentyloxy-4-methoxyphenyl)-2-phenylethanone (E)-O-(aminocarbonyl)oxime], the pIC50 is 7.33. In turn, `CCCCOc1cc(/C(C)=N/OC(=O)Oc2ccccc2)ccc1OC` [Example 12, 1-(3-butoxy-4-methoxyphenyl)ethanone (E)-O-(phenoxycarbonyl)oxime] gave a pIC50 of 6.42. Then `CCCCOc1cc(/C(C)=N/OC(=O)Nc2ccccc2)ccc1OC` [Example 9, 1-(3-butoxy-4-methoxyphenyl)ethanone (E)-O-[(phenylamino)carbonyl]oxime], with 5.82; and `CCCCOc1cc(/C(C)=N/OC(N)=O)ccc1OC` [Example 2, 1-[3-(Butoxy)-4-methoxyphenyl]ethanone (E)-O-(aminocarbonyl)oxime], with 7.05; and `COc1ccc(/C(CC(C)C)=N/OC(N)=O)cc1OC1CCCC1` [Example 6, 1-[3-(Cyclopentyloxy)-4-methoxyphenyl]-3-methylbutanone (E)-O-(aminocarbonyl)oxime], with 6.89.

For the compound `COc1ccc(/C(C)=N/OC(N)=O)cc1OC1CCCC1` [Example 1, 1-[3-(Cyclopentyloxy)-4-methoxyphenyl]ethanone (E)-O-(aminocarbonyl)oxime], the pIC50 was 7.32. Then `CNC(=O)O/N=C(\C)c1ccc(OC)c(OC2CCCC2)c1` [Example 7, 1-[3-(Cyclopentyloxy)-4-methoxyphenyl]ethanone (E)-O-[(methylamino)carbonyl]oxime], with 6.92; and `CCCCOc1cc(/C(C)=N/OC(=O)NC)ccc1OC` [Example 8, 1-(3-butoxy-4-methoxyphenyl)ethanone (E)-O-[(methylamino)carbonyl]oxime], with 6.70. Then `COC(=O)O/N=C(\C)c1ccc(OC)c(OC2CCCC2)c1` [Example 10, 1-[3-(cyclopentyloxy)-4-methoxyphenyl]ethanone (E)-O-(methoxycarbonyl)oxime], with 6.74; and `CCCCOc1cc(/C(C)=N/OC(=O)OC)ccc1OC` [Example 11, 1-(3-butoxy-4-methoxyphenyl)ethanone (E)-O-(methoxycarbonyl)oxime], with 6.62; and `COc1ccc(/C(CCc2ccccc2)=N/OC(N)=O)cc1OC1CCCC1` [Example 5, 1-(3-Cyclopentyloxy-4-methoxyphenyl)-3-phenylpropanone (E)-O-(aminocarbonyl)oxime], with 7.60. Then `COc1ccc(/C(C)=N/OC(N)=O)cc1OCCCOc1ccccc1` [Example 3, 1-[4-Methoxy-3-(3-phenoxypropoxy)phenyl]ethanone (E)-O-(aminocarbonyl)oxime], with 6.39.
